Molecular target: T1, human GPR119 (hGPR119) (Homo sapiens, UniProt Q8TDV5)
T1 construct: expressed in transfected cells
T1 sequence (Q8TDV5 1-335): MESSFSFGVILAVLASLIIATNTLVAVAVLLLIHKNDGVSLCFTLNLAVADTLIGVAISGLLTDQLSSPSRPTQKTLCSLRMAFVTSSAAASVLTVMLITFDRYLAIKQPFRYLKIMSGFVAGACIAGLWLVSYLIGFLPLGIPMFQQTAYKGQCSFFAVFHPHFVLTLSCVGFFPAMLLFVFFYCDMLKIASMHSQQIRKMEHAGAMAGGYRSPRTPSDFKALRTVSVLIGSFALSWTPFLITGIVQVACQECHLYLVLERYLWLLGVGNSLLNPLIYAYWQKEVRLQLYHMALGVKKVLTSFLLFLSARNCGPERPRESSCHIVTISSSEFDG
Test: cAMP accumulation assay (cAMP Gs dynamic HTRF kit)
Type: cell-based
Conditions: CHO-K1 cells stably expressing hGPR119, 4-parameter fit; for Emax: 1 h, % activity normalized to Max/Min controls; for EC50: cAMP accumulation
Experimental: CHO-K1 cells stably expressing human GPR119 (hGPR119) were prepared by transfection of a GPR119-carrying plasmid using Lipofectamine 2000 (following manufacturer instructions). A stable cell line was established using the limiting dilution method with geneticine selection. Assay-ready frozen (ARF) cells were prepared and used throughout the study.
The assay was performed in a 384-well plate format using the cAMP Gs dynamic assay kit from Cisbio. ARF cells expressing hGPR119 were thawed, washed and then resuspended in cAMP stimulation buffer at a cell density of 1.1×10^6 cells/mL. Cells were plated at a density of ˜10,000 cells/well (9 μL/well). Dose response curves for the tested compounds were prepared in a cAMP stimulation buffer, containing 0.1% Tween 80 at 4 fold the final concentration. The compounds were then transferred to the cell plates using BRAVO (3 μL/well) and the plates were incubated for 60 minutes at 37° C./5% CO2. Detection buffer (10 μL, prepared as described in the cAMP Gs dynamic kit) were added to each well, and the plates were incubated at ambient temperature for 1 hr.
RT-FRET was measured using a ClarioSTAR plate reader, calculating the ratio between emissions at 665 nm and 620 nm (HTRF ratio). The HTRF ratio for positive (Max) and negative (Min) controls were used to normalize HTRF data and generate values for % activity. EC50 and Max activity values were determined using a standard 4-parameter fit.

Compound	Emax	EC50
O=C(Cc1ccc(OCCCC2CCN(c3ncc(Cl)cn3)CC2)cc1F)NCCO[C@H]1O[C@H](CO)[C@@H](O)[C@H](O)[C@@H]1O (racemic) [Example 16, 2-[4-[3-[1-(5-chloropyrimidin-2-yl)-4-piperidyl]propoxy]-2-fluoro-phenyl]-N-[2-[rac-(2S,3S,4S,5S,6R)-3,4,5-trihydroxy-6-(hydroxymethyl)tetrahydropyran-2-yl]oxyethyl]acetamide]	100 to 130%	100 to 1000 nM
O=C(Cc1ccc(OCC2CC(C3CCN(c4ncc(Cl)cn4)CC3)C2)cc1F)N1CC(CNC[C@H](O)[C@@H](O)[C@H](O)[C@H](O)CO)C1 (stereo partly drawn) [Example 120, 2-[4-[ [3-[1-(5-chloropyrimidin-2-yl)-4-piperidyl]cyclobutyl]methoxy]-2-fluoro-phenyl]-1-[3-[[[(2S,3R,4R,5R)-2,3,4,5,6-pentahydroxyhexyl]amino]methyl]azetidin-1-yl]ethanone]	100 to 130%	≤ 100 nM
O=C(Cc1ccc(OCCCC2CCN(c3ncc(Cl)cn3)CC2)cc1F)N1CC[C@@H](CNCC(CO)(CO)CO)C1 [Example 147, 2-[4-[3-[1-(5-chloropyrimidin-2-yl)-4-piperidyl]propoxy]-2-fluoro-phenyl]-1-[(3S)-3-[[[3-hydroxy-2,2-bis(hydroxymethyl)propyl]amino]methyl]pyrrolidin-1-yl]ethanone]	100 to 130%	≤ 100 nM
COCc1cnc(N2CCC(CCCCOc3ccc(CC(=O)N4CC(CNC[C@H](O)[C@@H](O)[C@H](O)[C@H](O)CO)C4)c(F)c3)CC2)nc1 (racemic) [Example 84, 2-[2-fluoro-4-[4-[1-[5-(methoxymethyl)pyrimidin-2-yl]-4-piperidyl]butoxy]phenyl]-1-[3-[[[rac-(2S,3R,4R,5R)-2,3,4,5,6-pentahydroxyhexyl]amino]methyl]azetidin-1-yl]ethanone]	100 to 130%	100 to 1000 nM
O=C(Cc1c(F)cc(OCCCC2CCN(c3ncc(Cl)cn3)CC2)cc1F)N1CC[C@@H](CNC[C@H](O)[C@@H](O)[C@H](O)[C@H](O)CO)C1 [Example 132, 2-[4-[3-[1-(5-chloropyrimidin-2-yl)-4-piperidyl]propoxy]-2,6-difluoro-phenyl]-1-[(3S)-3-[[[(2S,3R,4R,5R)-2,3,4,5,6-pentahydroxyhexyl]amino]methyl]pyrrolidin-1-yl]ethanone]	100 to 130%	≤ 100 nM
O=C(Cc1ccc(OCCCC2CCN(c3ncc(Cl)cn3)CC2)cc1F)N1CC(CN2C[C@@H](O)[C@@H](O)[C@@H](O)C2)C1 [Example 50, 2-[4-[3-[1-(5-chloropyrimidin-2-yl)-4-piperidyl]propoxy]-2-fluoro-phenyl]-1-[3-[[rac-(3R,5S)-3,4,5-trihydroxy-1-piperidyl]methyl]azetidin-1-yl]ethanone]	100 to 130%	≤ 100 nM
O=C(Cc1ccc(OCCCC2CCN(c3ncc(Cl)cn3)CC2)cc1F)N1CCC(O)(CNC[C@H](O)[C@H](O)[C@H](O)CO)C1 (stereo partly drawn) [Example 186, 2-[4-[3-[1-(5-chloropyrimidin-2-yl)-4-piperidyl]propoxy]-2-fluoro-phenyl]-1-[3-hydroxy-3-[[[(2S,3S,4R)-2,3,4,5-tetrahydroxypentyl]amino]methyl]pyrrolidin-1-yl]ethanone]	≥ 130%	≤ 100 nM
CCOc1cnc(N2CCC(CCCOc3cc(F)c(CC(=O)N4CC[C@@H](CNCC(CO)(CO)CO)C4)c(F)c3)CC2)nc1 [Example 157, 2-[4-[3-[1-(5-ethoxypyrimidin-2-yl)-4-piperidyl]propoxy]-2,6-difluoro-phenyl]-1-[(3S)-3-[[[3-hydroxy-2,2-bis(hydroxymethyl)propyl]amino]methyl]pyrrolidin-1-yl]ethanone]	≥ 130%	≤ 100 nM
CCCc1cnc(N2CCC(CCCOc3cc(F)c(CC(=O)N4CC(CNC(CO)(CO)CO)C4)c(F)c3)CC2)nc1 [Example 76, 2-(2,6-difluoro-4-(3-(1-(5-propylpyrimidin-2-yl)piperidin-4-yl)propoxy)phenyl)-1-(3-(((1,3-dihydroxy-2-(hydroxymethyl)propan-2-yl)amino)methyl)azetidin-1-yl)ethan-1-one]	≥ 130%	≤ 100 nM

Results, then the compound that gave them:

Emax	EC50	Compound
≥ 130%	≤ 100 nM	CCOc1cnc(N2CCC(CCCOc3ccc(CC(=O)N4CC[C@@H](CNC(CO)(CO)CO)C4)c(F)c3)CC2)nc1 [Example 152, 2-[4-[3-[1-(5-ethoxypyrimidin-2-yl)-4-piperidyl]propoxy]-2-fluoro-phenyl]-1-[(3S)-3-[[[2-hydroxy-1,1-bis(hydroxymethyl)ethyl]amino]methyl]pyrrolidin-1-yl]ethanone]
≥ 130%	≤ 100 nM	O=C(CCC1CN(C(=O)Cc2ccc(OCCCC3CCN(c4ncc(Cl)cn4)CC3)cc2F)C1)NCC(O)(CO)CO [Example 35, 3-[1-[2-[4-[3-[1-(5-chloropyrimidin-2-yl)-4-piperidyl]propoxy]-2-fluoro-phenyl]acetyl]azetidin-3-yl]-N-[2,3-dihydroxy-2-(hydroxymethyl)propyl]propanamide]
≥ 130%	100 to 1000 nM	O=C(Cc1ccc(OCCCC2CCN(c3ncc(Cl)cn3)CC2)cc1F)N1CC(CCNCC(O)(CO)CO)C1 [Example 58, 2-(4-(3-(1-(5-chloropyrimidin-2-yl)piperidin-4-yl)propoxy)-2-fluorophenyl)-1-(3-(2-((2,3-dihydroxy-2-(hydroxymethyl)propyl)amino)ethyl)azetidin-1-yl)ethan-1-one]
100 to 130%	100 to 1000 nM	COCc1cnc(N2CCC(CCCOc3ccc(CC(=O)N4CC(C(=O)NCCNC(=O)NC(CO)(CO)CO)C4)c(F)c3)CC2)nc1 [Example 27, 1-[2-[2-fluoro-4-[3-[1-[5-(methoxymethyl)pyrimidin-2-yl]-4-piperidyl]propoxy]phenyl]acetyl]-N-[2-[[2-hydroxy-1,1-bis (hydroxymethyl)ethyl]carbamoylamino]ethyl]azetidine-3-carboxamide]
100 to 130%	100 to 1000 nM	CCCc1cnc(N2CCC(CCCOc3ccc(CC(=O)N4CC(CNCCNC(=O)NC(CO)(CO)CO)C4)c(F)c3)CC2)nc1 [Example 73, 1-(1,3-dihydroxy-2-(hydroxymethyl)propan-2-yl)-3-(2-(((1-(2-(2-fluoro-4-(3-(1-(5-propylpyrimidin-2-yl)piperidin-4-yl)propoxy)phenyl)acetyl)azetidin-3-yl)methyl)amino)ethyl)urea]
≥ 130%	≤ 100 nM	O=C(NC(CO)(CO)CO)C1CN(C(=O)Cc2c(F)cc(OCCCC3CCN(c4ncc(Cl)cn4)CC3)cc2F)C1 [Example 26, 1-[2-[4-[3-[1-(5-chloropyrimidin-2-yl)-4-piperidyl]propoxy]-2,6-difluoro-phenyl]acetyl]-N-[2-hydroxy-1,1-bis(hydroxymethyl)ethyl]azetidine-3-carboxamide]
100 to 130%	≤ 100 nM	COCC1(C(=O)NCC(CO)(CO)CO)CCN(C(=O)Cc2ccc(OCCCC3CCN(c4ncc(Cl)cn4)CC3)cc2F)C1 (centres unmarked) [Example 137, 1-[2-[4-[3-[1-(5-chloropyrimidin-2-yl)-4-piperidyl]propoxy]-2-fluoro-phenyl]acetyl]-N-[3-hydroxy-2,2-bis(hydroxymethyl)propyl]-3-(methoxymethyl)pyrrolidine-3-carboxamide]
100 to 130%	≤ 100 nM	COCc1cnc(N2CCC([C@H]3C[C@H]3CCOc3ccc(CC(=O)N4CC[C@@H](CNCC(CO)(CO)CO)C4)c(F)c3)CC2)nc1 [Example 163, 2-[2-fluoro-4-[2-[(1S,2R)-2-[1-[5-(methoxymethyl)pyrimidin-2-yl]-4-piperidyl]cyclopropyl]ethoxy]phenyl]-1-[(3S)-3-[[[3-hydroxy-2,2-bis(hydroxymethyl)propyl]amino]methyl]pyrrolidin-1-yl]ethanone]
100 to 130%	100 to 1000 nM	O=C(CC1CN(C(=O)Cc2ccc(OCCCC3CCN(c4ncc(Cl)cn4)CC3)cc2F)C1)NC(CO)(CO)CO [Example 32, 2-[1-[2-[4-[3-[1-(5-chloropyrimidin-2-yl)-4-piperidyl]propoxy]-2-fluoro-phenyl]acetyl]azetidin-3-yl]-N-[2-hydroxy-1,1-bis(hydroxymethyl)ethyl]acetamide]
≥ 130%	100 to 1000 nM	O=C(NCCNCCC1CN(C(=O)Cc2ccc(OCCCC3CCN(c4ncc(Cl)cn4)CC3)cc2F)C1)NC(CO)(CO)CO [Example 60, 1-(2-((2-(1-(2-(4-(3-(1-(5-chloropyrimidin-2-yl)piperidin-4-yl)propoxy)-2-fluorophenyl)acetyl)azetidin-3-yl)ethyl)amino)ethyl)-3-(1,3-dihydroxy-2-(hydroxymethyl)propan-2-yl)urea]

— patent US20230061736A1, “GPR119 AGONISTS” (Kallyope, Inc., priority 2019, published 2023)
